Ends that are not written are not given here.
Key:
MC3T3 cells = assay: Cell differentiation of MC3T3 cells (ALP activity); type: cell-based, mouse; settings: for cell differentiation promoting effect (ALP activity) on MC3T3 cells: at confluent state and one week after (FIG. 9, FIG. 10)
Method: As mouse-derived osteoblasts, cells of the MC3T3 cell strain or ST2 cell strain (purchased from Riken Cell Bank) were used. • (iii) Rat Femur Bone Marrow-derived Mesenchymal Stem Cells (BMMSC)
(§1) As an index of cell differentiation, alkaline phosphatase (ALP) activity of cells was determined. Cells were inoculated in a 24-well culture plate at a ratio of 5×10^3 cells/well, added with the peptide (a) at various concentrations and cultured in DMEM or αMEM containing 2% FBS. One week after the time point when the cells reached a confluent state, ALP activity was determined by the following enzymochemical method (Bessey-Lowry method, Bessey O A, Lowry O H and Brock M J, A method for the rapid determination of alkaline phosphatase with five cubic millimeter of serum, J. Biol. Chem., 164:321-329, 1946).
(§2) The cultured cells were washed with PBS and then disrupted in 10 mM Tris-HCl buffer (pH 7.4, 500 μl) for 40 seconds by using an ultrasonic homogenizer (Handy Sonic model UR-20P, Tomy Seiko) and stirred. Then, 25 μl of this sample liquid was added to 125 μl of ALP buffer (0.1 M carbonate buffer, pH 9.8, 6.7 mM p-nitrophenyl phosphate, 2 mM MgCl2) and incubated at 37° C. for 30 minutes. The reaction was terminated by addition of 125 μl of 0.2 N NaOH, and absorbance was measured at 405 nm by using a microplate reader (Model 550, Bio-Rad Laboratories).
Further, the peptides (a) and (b) were similarly examined by using the MC3T3 cells. ALP activity determined when the cells reached a confluent state is shown in FIG. 9, and ALP activity determined one week after the confluent state was attained is shown in FIG. 10. The symbol “cont” in the figures indicates the results for the cells cultured in αMEM containing 2% FBS alone, “PN” indicates the results for the cells cultured in the medium added only with the peptide (a), and “HN” indicates the results for the cells cultured in the medium added only with the peptide (b). Further, “ng” in the figures represents “ng/ml.” […]

bone loss model = assay: Bone loss model (tibia defect, soft X-ray); type: in vivo, Wistar rats; settings: for bone regeneration at the bone loss site (X-ray): peptide 3 mg/ml with collagen gel (Koken Atelocollagen Implant), versus control and collagen gel groups
Method: The following experiment was performed in order to examine action of the peptide of the present invention on a bone loss model. • (i) Preparation of Bone Loss Model Male Wistar rats (8-week old) were systemically anesthetized with an ethyl carbamate solution in a volume of 0.5 ml per 100 g of body weight, then the skin of the right and left hind leg tibiae and the periostium of tibiae were incised, and the periostium were reflected to expose the tibiae. Then, a hole having a diameter of 2 mm was perforated in the cortical bone at the same site by using a round bur under pouring physiological saline to form a defect reaching the medullary cavity (diameter: 2 mm, depth: 3 mm). • (ii) Test Method The bone loss site was filled with the peptide (a) (concentration: 0.3 mg/ml or 3 mg/ml) dissolved in a sodium hyaluronate preparation (trade name: ARTZ (registered trade mark), weight average molecular weight of sodium hyaluronate: about 900,000, concentration of sodium hyaluronate: 1%), and the periost and the skin were repositioned and sutured. Healing conditions of the animals 3 weeks after the operation in a group of animals filled with the peptide (peptide group), a group of animals applied with 1% PBS solution of sodium hyaluronate as a vehicle alone (HA group) and a group of animals applied with no substance before the suture of the skin periosteal flap (control group) were examined by using X-ray. • (iii) Results In a similar manner, experiments were performed with collagen gel (trade name: Koken Atelocollagen Implant, Koken) and the peptides (a) and (b) (concentration: 3 mg/ml).

PDL cells = assay: Cell differentiation of PDL cells (alkaline phosphatase activity, Bessey-Lowry method); type: cell-based, human; settings: for ALP activity increasing effect on PDL cells relative to BMP2: at confluent state and one week after (FIG. 5, FIG. 6), comparison with BMP2
From the text: PDL cells were isolated from a healthy premolar carefully extracted from a patient who visited a hospital to extract teeth for orthodontic treatment so that periodontal ligament should not be damaged as far as possible, and cultured. The extracted tooth was washed with sterilized physiological saline and phosphate-buffered saline (PBS, Nissui), and then periodontal ligament existing in ⅓ of the tooth root at the center was scraped off with a sharp knife. The pieces of periodontal ligament were transferred to a plastic plate and minced into small fragments using a round-blade knife. Tissue fragments were left standing in a plate having a diameter of 35 mm (FALCON) and cultured in Dulbecco's modified Eagle medium (DMEM, Nissui) containing antibiotics (100 U/ml of penicillin G, 100 μg/ml of streptomycin and 250 μg/ml of gentamicin) and 10% fetal bovine serum (FBS, EQUITECH-BIO) at 37° C. under 5% CO2. Then, cells released from the periodontal ligament tissue fragments were subcultured under the same conditions, and the 3rd to 5th generation cells were used for experiments. • (ii) Mouse-derived Osteoblasts
as §1, §2
Further, the ALP activity in DMEM containing 2% FBS and DMEM or αMEM containing 2% FBS added with peptide (c) at various concentrations was also similarly examined. The symbol “cont” in FIG. 4 indicates the results for the cells cultured in DMEM containing 2% FBS alone, “PN” indicates the results for the cells cultured in the medium added only with the peptide (a), and “PC” indicates the results for the cells cultured in the medium added only with the peptide (c). In FIG. 4, “pg” and “ng” represent “pg/ml” and “ng/ml,” respectively.
Further, in addition to the peptide (a) (derived from swine), the human-derived peptide (b) and BMP were similarly examined. The results of ALP activity measurement performed when the cells reached a confluent state are shown in FIG. 5, and the results of ALP activity measurement performed one week after the confluent state was attained are shown in FIG. 6. The symbol “cont” in the figures indicates the results for the cells cultured in DMEM containing 2% FBS alone, “B” indicates the results for the cells cultured in the medium added only with BMP2, “PN” indicates the results for the cells cultured in the medium added only with the peptide (a), and “HN” indicates the results for the cells cultured in the medium added only with the peptide (b) In the figures, the unit of numerical values shown after “B,” “PN” and “HN” is “ng/ml.”

[1] = measured at confluent state and one week after (FIG. 5, FIG. 6), versus control

| Sequence | cell differentiation promoting effect (ALP activity) on MC3T3 cells (MC3T3 cells) | bone regeneration at the bone loss site (X-ray) (bone loss model) | bone regeneration at the bone loss site (soft X-ray images) (bone loss model; peptide (a) 0.3 mg/ml or 3 mg/ml in 1% sodium hyaluronate preparation (ARTZ), 3 weeks after operation, versus control and HA groups) | ALP activity increasing effect on PDL cells relative to BMP2 (PDL cells) | ALP activity of the PDL cells (PDL cells; [1]) | ALP activity of the PDL cells (PDL cells; peptide at various concentrations, 2% FBS medium, one week after confluent state, versus control (FIG. 4)) | cell differentiation promoting effect (ALP activity) on the MC3T3 cell strain (MC3T3 cells; final concentration of 100 ng/ml, versus control (FIG. 12)) |
| --- | --- | --- | --- | --- | --- | --- | --- |
| VPAFPRQPGTPGVASL [Peptide (a)] | significant cell differentiation promoting effect | bone had been regenerated to such an extent that bone loss could hardly be recognized | bone had been regenerated to such an extent that bone loss could hardly be recognized | comparable to or higher than that of BMP2 | significantly increased | significantly increased |  |
| VPFFPQQSGTPGMASL [Peptide (b), peptide designed on the portion of human-derived sheathlin protein corresponding to (a)] | significant cell differentiation promoting effect | bone had been regenerated to such an extent that bone loss could hardly be recognized |  | comparable to or higher than that of BMP2 | significantly increased |  | high cell differentiation promoting effect |

— patent US7678884B2, “Biologically active peptide and agent containing the same” (Seikagaku Corporation, priority 2003, dated 2010)
